Test results as given in PubChem BioAssay (NCI).
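Results reflect a 48-hour exposure of cells in 96-well plates to compound at five concentrations. TGI denotes the concentration required for complete inhibition of growth.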

Legend:
Experiment in all cases: inhibition of tumour cell growth, NCI panel, 48 h
M14 melanoma = system: M14 melanoma
DU-145 prostate = system: DU-145 prostate
HS 578T breast = system: HS 578T breast
PC-3 prostate = system: PC-3 prostate
RXF 393 renal = system: RXF 393 renal
NCI/ADR-RES ovarian = system: NCI/ADR-RES ovarian
SK-MEL-2 melanoma = system: SK-MEL-2 melanoma
T-47D breast = system: T-47D breast
UACC-257 melanoma = system: UACC-257 melanoma
CAKI-1 renal = system: CAKI-1 renal
SW-620 colon = system: SW-620 colon
786-0 renal = system: 786-0 renal
KM12 colon = system: KM12 colon
BT-549 breast = system: BT-549 breast
IGROV1 ovarian = system: IGROV1 ovarian
COLO 205 colon = system: COLO 205 colon
MALME-3M melanoma = system: MALME-3M melanoma
SNB-19 CNS = system: SNB-19 CNS
SK-MEL-5 melanoma = system: SK-MEL-5 melanoma
TK-10 renal = system: TK-10 renal
A498 renal = system: A498 renal
A549 NSCLC = system: A549 NSCLC
NCI-H522 lung = system: NCI-H522 lung
NCI-H226 lung = system: NCI-H226 lung
EKVX NSCLC = system: EKVX NSCLC
UO-31 renal = system: UO-31 renal
MDA-MB-435 = system: MDA-MB-435
OVCAR-4 ovarian = system: OVCAR-4 ovarian
LOX IMVI melanoma = system: LOX IMVI melanoma
OVCAR-8 ovarian = system: OVCAR-8 ovarian
SK-OV-3 ovarian = system: SK-OV-3 ovarian
U251 CNS = system: U251 CNS
K-562 leukemia = system: K-562 leukemia
NCI-H23 lung = system: NCI-H23 lung
CCRF-CEM leukemia = system: CCRF-CEM leukemia
HOP-62 NSCLC = system: HOP-62 NSCLC
OVCAR-5 ovarian = system: OVCAR-5 ovarian
MDA-N = system: MDA-N
HCT-116 colon = system: HCT-116 colon
SN12C renal = system: SN12C renal
HCT-15 colon = system: HCT-15 colon
SK-MEL-28 melanoma = system: SK-MEL-28 melanoma
SF-268 CNS = system: SF-268 CNS
OVCAR-3 ovarian = system: OVCAR-3 ovarian
MDA-MB-231 breast = system: MDA-MB-231 breast
NCI-H460 lung = system: NCI-H460 lung
RPMI-8226 leukemia = system: RPMI-8226 leukemia
HT29 colon = system: HT29 colon
SF-295 CNS = system: SF-295 CNS
ACHN renal = system: ACHN renal
HCC-2998 colon = system: HCC-2998 colon
UACC-62 melanoma = system: UACC-62 melanoma
MOLT-4 leukemia = system: MOLT-4 leukemia
HL-60(TB) leukemia = system: HL-60(TB) leukemia
HOP-92 NSCLC = system: HOP-92 NSCLC
SR leukemia = system: SR leukemia
SF-539 CNS = system: SF-539 CNS
MCF7 breast = system: MCF7 breast
SNB-75 CNS = system: SNB-75 CNS

Which TGI (M14 melanoma) does the source give for `CSc1nc(Nc2ccccc2Cl)c2c(N)nn(C)c2n1` here?
The TGI was over 100 µM.

What about the TGI (DU-145 prostate) of the same compound?
The TGI was over 100 µM.

And the TGI (HS 578T breast)?
The TGI was over 100 µM.

And the TGI (PC-3 prostate)?
The TGI was over 100 µM.

And the TGI (RXF 393 renal)?
Its TGI is over 100 µM.

And the TGI (NCI/ADR-RES ovarian)?
The TGI was over 100 µM.

What about the TGI (SK-MEL-2 melanoma) of the same compound?
Its TGI is over 100 µM.

What about the TGI (T-47D breast) of the same compound?
Its TGI is 63.5 µM.

And the TGI (UACC-257 melanoma)?
The TGI was over 100 µM.

What about the TGI (CAKI-1 renal) of the same compound?
Its TGI is over 100 µM.

And the TGI (SW-620 colon)?
The TGI was over 100 µM.

What about the TGI (786-0 renal) of the same compound?
Its TGI is over 100 µM.

What about the TGI (KM12 colon) of the same compound?
The TGI was over 100 µM.

And the TGI (BT-549 breast)?
The TGI was over 100 µM.

What about the TGI (IGROV1 ovarian) of the same compound?
Its TGI is over 100 µM.

And the TGI (COLO 205 colon)?
The TGI was over 100 µM.

What about the TGI (MALME-3M melanoma) of the same compound?
The TGI was over 100 µM.

What about the TGI (SNB-19 CNS) of the same compound?
Its TGI is over 100 µM.

What about the TGI (SK-MEL-5 melanoma) of the same compound?
The TGI was over 100 µM.

What about the TGI (TK-10 renal) of the same compound?
The TGI was over 100 µM.

And the TGI (A498 renal)?
The TGI was over 100 µM.

And the TGI (A549 NSCLC)?
Its TGI is over 100 µM.

What about the TGI (NCI-H522 lung) of the same compound?
Its TGI is over 100 µM.

What about the TGI (NCI-H226 lung) of the same compound?
Its TGI is over 100 µM.

And the TGI (EKVX NSCLC)?
Its TGI is over 100 µM.

And the TGI (UO-31 renal)?
The TGI was over 100 µM.

And the TGI (MDA-MB-435)?
Its TGI is over 100 µM.

And the TGI (OVCAR-4 ovarian)?
Its TGI is over 100 µM.

What about the TGI (LOX IMVI melanoma) of the same compound?
Its TGI is over 100 µM.

And the TGI (OVCAR-8 ovarian)?
The TGI was over 100 µM.

What about the TGI (SK-OV-3 ovarian) of the same compound?
Its TGI is over 100 µM.

And the TGI (U251 CNS)?
The TGI was over 100 µM.

And the TGI (K-562 leukemia)?
The TGI was over 100 µM.

And the TGI (NCI-H23 lung)?
Its TGI is over 100 µM.

And the TGI (CCRF-CEM leukemia)?
Its TGI is over 100 µM.

And the TGI (HOP-62 NSCLC)?
Its TGI is over 100 µM.

And the TGI (OVCAR-5 ovarian)?
The TGI was over 100 µM.

And the TGI (MDA-N)?
Its TGI is over 100 µM.

What about the TGI (HCT-116 colon) of the same compound?
The TGI was over 100 µM.

And the TGI (SN12C renal)?
The TGI was over 100 µM.

And the TGI (HCT-15 colon)?
Its TGI is over 100 µM.

What about the TGI (SK-MEL-28 melanoma) of the same compound?
The TGI was over 100 µM.

What about the TGI (SF-268 CNS) of the same compound?
Its TGI is over 100 µM.

And the TGI (OVCAR-3 ovarian)?
The TGI was over 100 µM.

What about the TGI (MDA-MB-231 breast) of the same compound?
Its TGI is over 100 µM.

And the TGI (NCI-H460 lung)?
The TGI was over 100 µM.

What about the TGI (RPMI-8226 leukemia) of the same compound?
The TGI was over 100 µM.

And the TGI (HT29 colon)?
Its TGI is over 100 µM.

And the TGI (SF-295 CNS)?
The TGI was over 100 µM.

What about the TGI (ACHN renal) of the same compound?
Its TGI is 26 µM.

What about the TGI (HCC-2998 colon) of the same compound?
Its TGI is over 100 µM.

What about the TGI (UACC-62 melanoma) of the same compound?
Its TGI is over 100 µM.

What about the TGI (MOLT-4 leukemia) of the same compound?
The TGI was over 100 µM.

Which TGI (HL-60(TB) leukemia) does the source give for `CCOc1ccccc1NC(=O)C(=O)C(/C(=N/N)C(=O)OC)c1nc2ccc([N+](=O)[O-])cc2[nH]c1=O` (stereo unspecified) here?
Its TGI is over 100 µM.

What about the TGI (M14 melanoma) of the same compound?
The TGI was over 100 µM.

And the TGI (HOP-92 NSCLC)?
Its TGI is over 100 µM.

What about the TGI (HS 578T breast) of the same compound?
Its TGI is over 100 µM.

And the TGI (PC-3 prostate)?
The TGI was over 100 µM.

What about the TGI (RXF 393 renal) of the same compound?
Its TGI is over 100 µM.

And the TGI (NCI/ADR-RES ovarian)?
The TGI was over 100 µM.

And the TGI (SK-MEL-2 melanoma)?
Its TGI is over 100 µM.

And the TGI (T-47D breast)?
Its TGI is over 100 µM.

What about the TGI (UACC-257 melanoma) of the same compound?
The TGI was over 100 µM.

And the TGI (CAKI-1 renal)?
The TGI was over 100 µM.

What about the TGI (SW-620 colon) of the same compound?
Its TGI is over 100 µM.

What about the TGI (786-0 renal) of the same compound?
The TGI was over 100 µM.

And the TGI (KM12 colon)?
Its TGI is over 100 µM.

What about the TGI (BT-549 breast) of the same compound?
Its TGI is over 100 µM.

And the TGI (SR leukemia)?
Its TGI is over 100 µM.

And the TGI (IGROV1 ovarian)?
Its TGI is over 100 µM.

And the TGI (MALME-3M melanoma)?
The TGI was over 100 µM.

What about the TGI (SK-MEL-5 melanoma) of the same compound?
Its TGI is over 100 µM.

And the TGI (TK-10 renal)?
The TGI was over 100 µM.

What about the TGI (A498 renal) of the same compound?
The TGI was over 100 µM.

And the TGI (A549 NSCLC)?
The TGI was over 100 µM.

What about the TGI (NCI-H522 lung) of the same compound?
Its TGI is over 100 µM.

What about the TGI (SF-539 CNS) of the same compound?
The TGI was over 100 µM.

What about the TGI (NCI-H226 lung) of the same compound?
The TGI was over 100 µM.

What about the TGI (EKVX NSCLC) of the same compound?
Its TGI is over 100 µM.

What about the TGI (MDA-MB-435) of the same compound?
The TGI was over 100 µM.

And the TGI (OVCAR-4 ovarian)?
Its TGI is over 100 µM.

What about the TGI (LOX IMVI melanoma) of the same compound?
Its TGI is over 100 µM.

What about the TGI (OVCAR-8 ovarian) of the same compound?
The TGI was over 100 µM.

What about the TGI (SK-OV-3 ovarian) of the same compound?
The TGI was over 100 µM.

And the TGI (U251 CNS)?
Its TGI is over 100 µM.

What about the TGI (K-562 leukemia) of the same compound?
The TGI was over 100 µM.

What about the TGI (CCRF-CEM leukemia) of the same compound?
Its TGI is over 100 µM.

What about the TGI (MCF7 breast) of the same compound?
Its TGI is over 100 µM.

What about the TGI (HOP-62 NSCLC) of the same compound?
The TGI was over 100 µM.

What about the TGI (OVCAR-5 ovarian) of the same compound?
Its TGI is over 100 µM.

What about the TGI (SNB-75 CNS) of the same compound?
The TGI was over 100 µM.

And the TGI (MDA-N)?
Its TGI is over 100 µM.

And the TGI (HCT-116 colon)?
The TGI was over 100 µM.

And the TGI (SN12C renal)?
The TGI was over 100 µM.

What about the TGI (HCT-15 colon) of the same compound?
Its TGI is over 100 µM.

What about the TGI (SK-MEL-28 melanoma) of the same compound?
Its TGI is over 100 µM.

And the TGI (SF-268 CNS)?
Its TGI is over 100 µM.

And the TGI (OVCAR-3 ovarian)?
The TGI was over 100 µM.

And the TGI (MDA-MB-231 breast)?
The TGI was over 100 µM.

And the TGI (NCI-H460 lung)?
The TGI was over 100 µM.

And the TGI (RPMI-8226 leukemia)?
Its TGI is over 100 µM.

What about the TGI (HT29 colon) of the same compound?
Its TGI is over 100 µM.

What about the TGI (SF-295 CNS) of the same compound?
Its TGI is over 100 µM.

What about the TGI (HCC-2998 colon) of the same compound?
The TGI was over 100 µM.

What about the TGI (UACC-62 melanoma) of the same compound?
The TGI was over 100 µM.

And the TGI (MOLT-4 leukemia)?
The TGI was over 100 µM.
